# Tests used:
# Nf1−/− astrocytes [1] = assay: Cell number by trypan blue exclusion, Nf1−/− astrocytes; type: cell-based, mouse; details: CXCL12 0.1 ug/ml (≈10 nM), 24 hours, vs untreated controls
# Protocol: (§1) Culture and treatment of primary astrocytes. Primary cultures of astrocytes were prepared from post-natal day two Nf1^flox/flox mice as previously described (134) and in accordance with established Animal Studies Protocols at Washington University School of Medicine. Cultures were infected with adenovirus containing either Cre recombinase (Nf1−/−) or LacZ (Nf1+/+). Primary cultures of astrocytes were grown under standard adherent conditions in serum free media (DMEM/F12 or Neurobasal (Gibco-BRL)) in the presence or absence of 0.1 μg/ml CXCL12 (Peprotech) and 10 μM Forskolin for 24 hours, as indicated. Cell number was determined after 24 hours by trypan blue exclusion and the growth effects of CXCL12 were derived as follows: ((cell number in the presence of CXCL12—cell number cell in the absence of CXCL12)/cell number in the absence of CXCL12)×100.)
# (§2) To determine the biological significance of CXCR4 activation to NF1 glioma biology, we next sought to evaluate the regulation of CXCL12 growth effects by neurofibromin in astrocytes. While the true cell of origin of astrocytomas remains unknown, we utilized primary cultures of cortical astrocytes as a model of a normal counterpart to astrocytoma cells. Astrocytes were derived from Nf1^flox/flox mice and rendered Nf1+/+ or Nf1−/− by infection with adenovirus encoding LacZ or Cre recombinase, respectively.
# Nf1+/+ astrocytes [2] = assay: Cell number by trypan blue exclusion, Nf1+/+ astrocytes; type: cell-based, mouse; details: CXCL12 0.1 ug/ml (≈10 nM), 24 hours, vs untreated controls
# Protocol: as §1, §2
# astrocytes = assay: Cell number by trypan blue exclusion, primary astrocytes; type: cell-based, mouse; details: CXCL12 1 μg/ml, 24 hours
# Protocol: Primary astrocyte cultures. Primary astrocytes were cultured from 1 to 3-day-old BALB/C mice as described (57). The cortices were triturated into single cells in minimal essential medium (Invitrogen) containing 10% FCS, and then plated onto 75 cm^2 T-flasks (0.5 hemisphere/flask) for 10-14 days. Astrocytes were prepared by vigorous shaking of T-flasks overnight, removal of non-adherent cells, and isolation of the remaining adherent cells, with 0.1% trypsin.
# (§3) Growth factor and drug treatment. Following serum-starvation for 24 hours, astrocytes, granule cells, U87 cells and Daoy cells, were treated with 1 μg/ml CXCL12 (PeproTech), […] AMD3465 (kind gift from Simon Fricker, AnorMED, Langley, BC, Canada) (200 μM Rolipram (Sigma), or 10 μM Forskolin (Sigma) as indicated.
# Nf1+/+ astrocytes [3] = assay: Cell cycle analysis by flow cytometry, Nf1+/+ astrocytes; type: cell-based, mouse; details: CXCL12 0.1 μg/ml
# Protocol: (§4) Cell Cycle Analysis. Ethanol fixed cells were washed in PBS and resuspended in PI staining solution containing 0.1% Triton-X-100, 0.2 mg/ml RNase A, and 20 ug/ml Propidium Iodide in PBS. The cells were incubated for 15 minutes at 37° C., in the dark. Flow Cytometry was performed on a FACSCalibur system (Becton Dickinson, San Jose, Calif.) Data were analyzed using CellQuest software (Becton Dickinson, San Jose, Calif.). Aggregates and debris were excluded from the analysis.
# (§5) The basis for the in vitro growth effects of CXCL12 was further evaluated by cell cycle analysis of asynchronously growing cultures of Nf1+/+ and Nf1−/− astrocytes in the presence and absence of CXCL12. In agreement with measurements of cell number, 15% more Nf1−/− astrocytes were in the S+G2M fraction of the cell cycle compared to Nf1+/+ astrocytes (P<0.005, data not shown). This decrease in Nf1+/+ cell number in response to CXCL12 was the result of both a 6% decrease in proliferation (S+G2-M) and a 38+/−8% increase in apoptosis (sub-G0). The increase in Nf1−/− cell number was the result of a 27+/−12% decline in apoptosis alone (FIG. 9C).
# Nf1−/− astrocytes [4] = assay: Cell cycle analysis by flow cytometry, Nf1−/− astrocytes; type: cell-based, mouse; details: CXCL12 0.1 μg/ml
# Protocol: as §4, §5
# U87 glioblastoma cells = assay: Intracellular cAMP by ELISA, U87 glioblastoma cells; type: cell-based, human; details: 1 μg/ml CXCL12
# Protocol: as §3
# cAMP measurement in cell culture. cAMP concentration was measured using a Correlated-EIA™. Enzyme Immunoassay Kit (Assay Designs Inc. MI) according to the manufacturer's instructions. Briefly, U87 or Daoy cells were serum-starved for 24 hours, and treated with CXCL12 (1 μg/ml), Rolipram (200 μM), or forskolin (10 μM). Cells were lysed in 0.1M HCL and particulate matter was removed by centrifugation at >600×g for 10 min. The supernatants were dried down and resuspended in assay buffer.
# Determination of cAMP concentration. Competitive immunoassay for cAMP concentration was performed exactly as directed by the manufacturer. Absorbance at 405 nm was measured and cAMP concentrations were determined by calculation based on a standard curve. Protein concentrations were measured by colormetric assay (Bio-Rad, Hercules, Calif.) according to the manufacturer's directions. cAMP values were normalized to protein for each sample individually.
# CXCR4 = biological target: T1, CXCR4 (Mus musculus, UniProt P70658); assay: CXCL12-induced CXCR4 phosphorylation (pCXCR4 western blot), Nf1−/− astrocytes; type: cell-based; details: CXCL12 0.1 μg/ml, at 5 minutes
# T1 construct: endogenous in cells; host or cells: primary mouse astrocytes (Nf1 flox/flox, infected with Ad-LacZ or Ad-Cre)
# Protocol: Western Blot Analysis. Whole-cell extracts were obtained by lysing cells with lysis buffer (20 mM Tris pH 7.4, 137 mM NaCl, 10% Glycerol and 1% Triton-X-100) supplemented with phosphatase inhibitor cocktail set II (Calbiochem, La Jolla, Calif.), PMSF (1 mM), leupeptin, (0.005 mg/ml) and aprotinin (0.005 mg/ml). The proteins were resolved with 10% Bis-Tris gels (Invitrogen) and transferred onto the nitrocellulose membrane Hybond ECL (Amersham, Piscataway, N.J.) according to standard protocols. Membranes were incubated with polyclonal antibodies CXCR4 (1:500), pErk½ (1:1200), pan Erk½ (1:150), pAkt (1:500), pan Akt (1:1000), pGRK2 (1:250), and pCXCR4 (1:200) overnight at 4° C. This was followed by incubation with horseradish peroxidase-conjugated secondary antibody (1:15,000; Bio-Rad). Peroxide activity was detected using the enhanced chemiluminescence Supersignal West Dura system (Pierce, Rockford, Ill.) Mouse anti-actin antibody was used as a loading control. Quantitation of western blots was performed by densitometry using Image J software from the NIH.
# Among the primary mechanisms for controlling GPCR effects on cAMP production is receptor desensitization (140). This process is initiated when ligand occupied GPCR (e.g., CXCR4) is phosphorylated by G protein receptor kinase (GRK). […]
# T1 sequence (P70658 whole entry): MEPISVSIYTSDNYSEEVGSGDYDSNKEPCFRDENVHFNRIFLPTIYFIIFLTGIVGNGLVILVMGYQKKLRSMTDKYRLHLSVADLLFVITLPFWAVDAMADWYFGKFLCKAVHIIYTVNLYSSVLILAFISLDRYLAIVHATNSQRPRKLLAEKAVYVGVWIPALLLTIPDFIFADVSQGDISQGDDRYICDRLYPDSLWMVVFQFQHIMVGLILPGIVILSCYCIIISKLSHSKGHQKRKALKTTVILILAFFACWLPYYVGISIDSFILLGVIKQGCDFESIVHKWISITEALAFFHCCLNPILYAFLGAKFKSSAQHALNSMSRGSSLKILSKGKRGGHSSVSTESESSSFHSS
substance,measurement,setting,value
CXCL12: chemokine ligand of CXCR4 (Peprotech),increase in cell number,Nf1−/− astrocytes [1],~14+/−2%
same,decrease in cell number,Nf1+/+ astrocytes [2],10+/−5%
same,effect on cell number,astrocytes,tended to decrease
same,decrease in proliferation (S+G2-M),Nf1+/+ astrocytes [3],6%
same,increase in apoptosis (sub-G0),Nf1+/+ astrocytes [3],38+/−8%
same,decline in apoptosis (sub-G0),Nf1−/− astrocytes [4],27+/−12%
same,cyclic AMP levels after CXCL12,U87 glioblastoma cells,rapidly declined
same,reduction in intracellular cAMP as compared to astrocytes (area under the curve),U87 glioblastoma cells,45%
same,decrease in pCXCR4,CXCR4,0.56+/−0.14 fold
